For one series, the system named is MOLT1. Kind of series: Cell death of other cancer cell lines: MOLT1. The series is classed as cell-based. Conditions: Homo sapiens; MOLT1, T-ALL. How it is done: (§1) The PROTACs prepared herein were tested for their use in other cancer cell lines to determine activity in multiple different types of cancer.
Another series has as its target VHL (Homo sapiens, UniProt P40337). Kind of series: HTRF binding assay for VHL (Table 2). An excerpt:
Biochemical assays in 384-well format have established to assess the binding of newly synthesized PROTACs to the appropriate E3 ligase using HTRF technology. In these assays an anti-HIS antibody conjugated to terbium was used as the donor fluor, and either a Cy5 labeled small molecule probe, or a biotinylated peptide that is bound to a streptavidin acceptor.
(In general: TR-FRET usually uses a lanthanide donor and a delayed reading to cut background.)

A further series concerns Hut-78. Kind of series: Cell death of other cancer cell lines: Hut-78. The series is classed as cell-based. Conditions: Homo sapiens, HuT78; Hut-78, T cell lymphoma. The method, then: as §1
The next series concerns SKOV3. Nature of the series: Cell death of other cancer cell lines: SKOV3. Format: cell-based. Conditions: Homo sapiens, SK-OV-3; SKOV3, Ovarian. The method, then: as §1
A further series has as its system KPCA. Kind of series: Cell death of other cancer cell lines: KPCA. The series is classed as cell-based. Conditions: Ovarian, Mouse. The method, then:
as §1

The subject of the next series is SU-DHL-6. Kind of series: Cell death of other cancer cell lines: SU-DHL-6. Conditions: Homo sapiens; SU-DHL-6, Diffuse large B cell lymphoma. The series is classed as cell-based. How it is done:
as §1

The next series concerns mut p53 MDA-MD-231 cells. Kind of series: Live cell count with CellTag700 Stain in ICW format. The following applies: after 24 h and 48 h treatment. How it is done:
Cells are seeded in 96 half area well plates (black clear bottom) and cultured overnight. Then they are treated with compounds, fixed with 4% paraformaldehyde for 20 minutes, and permeabilized in 0.1% Triton. They are then treated with the primary antibody and secondary antibody conjugated to IRDye800CW or treated with CellTag 700 Stain. The plates are then scanned on the OdysseyCLX and the data processed to provide a dose response curve.
Since genetic deletion of Mdm2 induces p73 and induces apoptosis in p53 mutant and deficient cancer cells, YX-02-030 and YX-02-228 were evaluated for their effect on cell viability. First, the CellTag700 Stain was utilized to count the number of live cells in the ICW format.

The next series concerns Ramos. Kind of series: Cell death of other cancer cell lines: Ramos. The following applies: Homo sapiens, Burkitt lymphoma. The series is classed as cell-based. The method, then:
as §1

For series [1], the system named is MDA-MB-231 and MDA-MB-436 TNBC xenografts. Kind of series: TNBC xenografts in nude mice. Format: in vivo, mouse. The method, then:
A-G. MDA-MB-231 and MDA-MB-436 cells were injected (subcutaneous) into one flank of nude mice and allowed to form palpable tumors (approximately 80 mm^3). Mice (randomized into tumor-size matched groups) were treated (intraperitoneal injection) with MDM2-PROTAC YX-02-030, RG7112D, or vehicle control at 50 mg/kg once daily for 14 days (treatment start, green arrow and stop, red arrow). Kaplan-Meier survival analysis (A) and tumor volume (B; individual, left and averaged, right) were evaluated overtime. C-G, After 72 hr of treatment, tumors (n=3/group; −, vehicle control) were harvested and protein expression evaluated by Western blotting (C), Annexin-V positivity (D), Caspase-3 activity (E), apoptotic subG1 DNA content (F), and viability by Trypan Blue dye exclusion (G). Mean±SD (B (right), D-G). Log-rank tests for A, and longitudinal tumor growth analysis using 2-way ANOVA with Bonferroni correction for B; P-values indicated. *P<0.0021 for D, *P<0.0001 for E, *P<0.0147 for F, and *P<0.0014 for G were determined using unpaired two-tailed t-tests, comparing PROTAC to vehicle control.
Prior to testing YX-02-030 tumors in vivo, mouse liver microsome and pharmacokinetic (PK) studies were performed to determine its stability in vivo. […] Due to its stability in vivo, the effectiveness of YX-02-030 was then evaluated at killing TNBC tumors in mice. Xenografts of MDA-MB-231 and MDA-MB-436 TNBC cells grew to ˜80 mm^3, and then tumor size-matched mice were treated with YX-02-030, RG7112D control compound, or vehicle control. […] To confirm YX-02-030 was hitting its target (MDM2) in the TNBC tumors, tumors were harvested from a cohort of mice after 72 hours of YX-02-030 treatment. […] The toxicity of YX-2-228 was analyzed as compared to both the vehicle and YX-2-30. (FIGS. 25A & 25B).

Series [2] in a line: Mouse liver microsomal stability. The series is classed as in vitro ADME. Conditions: mouse liver microsomes, 0.5 μM compound. The method, then:
To translate cell-based activity to in vivo efficacy, the Mdm2 PROTACs were evaluated for metabolic stability and plasma compound levels after IP injection in the mouse. Mouse liver microsome stability was obtained for lead compounds (Alliance Pharma, Inc; Malvern PA) as a predictive measure for suitable exposure in a mouse pharmacokinetic study. In brief, test compounds (0.5 μM) are incubated with liver microsomes ([…]) and an NADPH-regenerating system (cofactor solution) and samples are taken at various timepoints, quenched with an acetonitrile solution containing an internal standard, then analyzed by LC-MS/MS. […] Mouse pharmacokinetic studies for YX-02-030 and YX-02-288 were completed. Mouse plasma levels were evaluated following intraperitoneal (10 mg/kg) administration. Plasma was collected at timepoints 0.25 h, 0.5 h, 1 h, 2 h, 4 h and 6 h after Mdm2 PROTAC injection. Plasma was deproteinized and analyzed for compound using LC-MS/MS methods. Three mice were used for each time point and one control animal (Alliance Pharma Inc, Malvern PA).
(Liver microsomes are a subcellular fraction often used to study metabolism.)

The next series deals with Mdm2-VHL (Homo sapiens, UniProt P40337+Q00987). Nature of the series: AlphaScreen ternary complex formation. Format: binding. The following applies: GST-MDM2 and HIS-VHL. The source says: A. Chemical structure of MDM2-PROTAC. B-C. MDM2:p53 and MDM2:VHL-HIF1α peptide binding inhibition determined by homogeneous time-resolved fluorescence (HTRF, triplicate, mean±SEM, B) and surface plasmon resonance (SPR, triplicate, mean±SD, C. Binding assays by the indicated compounds. Graphical data is representative of 3 separate experiments. D. AlphaScreen of ternary complex using GST-MDM2 and HIS-VHL; mean±SD. E-F. Western blot analysis for the proteins indicated following a dose-titration (E, 16 hr) and time course (F, 6 μM) with the PROTAC or vehicle control (DMSO, −) in MDA-MB-231 (p53-mutant) and MDA-MB-436 (p53-delete) cells. G-K. Western blot analysis for the proteins indicated following treatment with the MDM2-PROTAC and/or the neddylation activating enzyme inhibitor MLN4924 G.
On the technique in general: Bead proximity is the source of the signal in Alpha formats.

For a further series, the system named is Cal27. Kind of series: Cell death of other cancer cell lines: Cal27. The series is classed as cell-based. The following applies: Homo sapiens, CAL-27; Cal27, Head & Neck. How it is done:
as §1

[3] abbreviates: 50 mg/kg IP once daily for 14 days, compared to control mice.

Each structure is given as a SMILES string.

As a reminder, the IC50 is the midpoint of a concentration-inhibition curve. Low readings indicate greater potency, high ones weaker potency. A word on the half-life: it is the time needed for the level to fall by half in the phase considered. A lower half-life goes with fast loss.

Chain of VHL (P40337 whole entry): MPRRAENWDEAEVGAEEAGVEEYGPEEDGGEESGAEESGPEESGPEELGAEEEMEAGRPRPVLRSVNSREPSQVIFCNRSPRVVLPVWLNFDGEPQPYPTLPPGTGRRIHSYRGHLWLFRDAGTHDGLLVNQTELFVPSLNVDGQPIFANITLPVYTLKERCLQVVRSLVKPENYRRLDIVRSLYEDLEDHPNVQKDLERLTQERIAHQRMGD
Chain of VHL (Q15370 whole entry partner): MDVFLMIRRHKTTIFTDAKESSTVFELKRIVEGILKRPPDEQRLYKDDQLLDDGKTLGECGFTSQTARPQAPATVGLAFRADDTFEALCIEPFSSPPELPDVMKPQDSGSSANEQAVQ
Chain of VHL (Q15369 whole entry partner): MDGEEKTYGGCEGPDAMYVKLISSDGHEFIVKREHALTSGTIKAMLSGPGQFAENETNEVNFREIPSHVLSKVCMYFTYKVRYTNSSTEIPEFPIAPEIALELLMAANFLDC
Chain of Mdm2-VHL (Q00987 whole entry): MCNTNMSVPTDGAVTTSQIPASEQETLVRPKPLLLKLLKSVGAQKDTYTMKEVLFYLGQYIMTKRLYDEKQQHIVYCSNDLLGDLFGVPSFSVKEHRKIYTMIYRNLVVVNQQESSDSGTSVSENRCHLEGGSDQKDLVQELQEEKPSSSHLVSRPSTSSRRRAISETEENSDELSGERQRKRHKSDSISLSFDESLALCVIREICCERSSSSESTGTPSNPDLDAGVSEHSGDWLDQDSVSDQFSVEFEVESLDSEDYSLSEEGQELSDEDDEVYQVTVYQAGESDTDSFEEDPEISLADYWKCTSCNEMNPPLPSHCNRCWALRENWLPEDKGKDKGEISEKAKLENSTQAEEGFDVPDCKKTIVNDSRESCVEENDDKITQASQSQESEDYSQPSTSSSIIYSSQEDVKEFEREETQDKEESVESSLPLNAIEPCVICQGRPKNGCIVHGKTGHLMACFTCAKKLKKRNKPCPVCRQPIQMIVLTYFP
Chain of Mdm2-VHL (P40337 whole entry): as the sequence (P40337 whole entry) above
Chain of Mdm2-VHL (Q15370 whole entry partner): as the sequence (Q15370 whole entry partner) above
Chain of Mdm2-VHL (Q15369 whole entry partner): as the sequence (Q15369 whole entry partner) above

`CCOc1cc(C(C)(C)C)ccc1C1=N[C@](C)(c2ccc(Cl)cc2)[C@](C)(c2ccc(Cl)cc2)N1C(=O)N1CCN(CC(=O)NCCCNC(=O)COc2ccc3c(c2)CN(C(=O)[C@H](NC(=O)[C@@H](C)NC)C(C)(C)C)[C@@H](C(=O)N[C@H]2CCCc4ccccc42)C3)CC1` [YX-02-228, (R)-7-(2-((3-(2-(4-((4R,5S)-2-(4-(tert-butyl)-2-ethoxyphenyl)-4,5-bis(4-chlorophenyl)-4,5-dimethyl-4,5-dihydro-1H-imidazole-1-carbonyl)piperazin-1-yl)acetamido)propyl)amino)-2-oxoethoxy)-2-((R)-3,3-dimethyl-2-((R)-2-(methylamino)propanamido)butanoyl)-N-((S)-1,2,3,4-tetrahydronaphthalen-1-yl)-1,2,3,4-tetrahydroisoquinoline-3-carboxamide]: the IC50 in the series with MOLT1 is 2.7 µM; on VHL it was more than 10 µM; in the series with Hut-78, 8.8 µM; with SKOV3, 3.2 µM; in the series on KPCA, 3.4 µM; in the series with SU-DHL-6, 2.9 µM. For the same compound, half-maximal inhibition with Ramos (IC50) required 5.5 µM. For the same compound, the “cytotoxic effect, number of live cells” value with mut p53 MDA-MD-231 cells is “potent cytotoxic effects”.
On to `CCOc1cc(C(C)(C)C)ccc1C1=N[C@](C)(c2ccc(Cl)cc2)[C@](C)(c2ccc(Cl)cc2)N1C(=O)N1CCN(CC(=O)NCCOCCOCCOCC(=O)N[C@H](C(=O)N2C[C@H](O)C[C@H]2C(=O)NCc2ccc(-c3scnc3C)cc2)C(C)(C)C)CC1` (racemic) [YX-02-030], for which the mouse survival entry in series [1] (setting [3]) was “significantly extended mouse survival”. Further, the tumor volume entry in series [1] (setting [3]) is given as “decreased tumor volume”. For the same compound, in [1] (nude mice, 50 mg/kg IP, 14 consecutive days), the mouse weight result was “mouse weight was maintained”. Moreover, the “MDM2 protein in tumors” value in [1] (tumors harvested after 72 hours of treatment) is listed as “loss of MDM2 protein”. Besides, the IC50 with MOLT1 came to 2.6 µM; with Hut-78, 9 µM; in the series with SKOV3, 5.7 µM; in the series on KPCA it was 2.9 µM; with SU-DHL-6 it was 3.6 µM; with Cal27 it was 2.3 µM. This compound returned an IC50 in the series with Ramos of 3.1 µM. The half-life at 0.5 μM in series [2] was determined as 25.9 min. Also, the ternary complex formation entry at Mdm2-VHL is “efficiently form a ternary complex”. Moreover, in the series with mut p53 MDA-MD-231 cells, the “cytotoxic effect, number of live cells” value is “potent cytotoxic effects”.

These data come from US20260053931A1, “MDM2 TARGETING PROTACS” (THE WISTAR INSTITUTE OF ANATOMY AND BIOLOGY, priority 2023, published 2026).
